Data from patent US10597388B2, “Pyridazinone herbicides” (FMC CORPORATION, priority 2014, dated 2020).

Tests used:
Type in all cases: in vivo
[1] = system: barnyardgrass (Echinochloa crus-galli); assay: Test A greenhouse herbicide test, pre- and postemergence
In short: (§1)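 Seeds in loam–sand blend received a preemergence directed soil spray; plants at 2–10 cm, one- to two-leaf stage, received postemergence sprays. Compounds in a non-phytotoxic solvent with surfactant. After about 10 d in a greenhouse, injury rated visually versus untreated controls on a 0–100 scale (100 = complete control).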

corn (Zea mays) = assay: as above; conditions: Postemergence
In short: as §1

[2] = system: foxtail, giant (giant foxtail, Setaria faberii); assay: as above
In short: as §1

kochia (Kochia scoparia) = assay: as above
In short: as §1

[3] = system: pigweed (Amaranthus retroflexus); assay: as above
In short: as §1

[4] = system: ragweed (common ragweed, Ambrosia elatior); assay: as above
In short: as §1

[5] = system: ryegrass, Italian (Italian ryegrass, Lolium multiflorum); assay: as above
In short: as §1

[6] = system: wheat (Triticum aestivum); assay: as above; conditions: Postemergence
In short: as §1

[7] = system: blackgrass (Alopecurus myosuroides); assay: Test A greenhouse herbicide test, postemergence
In short: (§2)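 Visual injury score, 0 (no effect) to 100 (complete control), versus untreated controls roughly 10 d after postemergence spray; plants at one- to two-leaf stage, 2 to 10 cm tall, in loam soil and sand, kept in greenhouse.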

[8] = system: galium (catchweed bedstraw, Galium aparine); assay: Test A greenhouse herbicide test, postemergence
In short: as §2

[9] = system: barnyardgrass (Echinochloa crus-galli); assay: Test C greenhouse herbicide test, pre- and postemergence
In short: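 Pre- and postemergence greenhouse screen; values are visual control ratings, 0 meaning no effect and 100 complete kill, assigned relative to untreated plants after 13 to 15 d.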

[10] = Postemergence, 125 g ai/ha, 0 to 100 scale where 0 is no effect and 100 is complete control
[11] = Postemergence, 500 g ai/ha, visual rating after approx. 10 d, 0 to 100 scale (0 no effect, 100 complete control)
[12] = Preemergence, 125 g ai/ha, 0 to 100 scale where 0 is no effect and 100 is complete control
[13] = Preemergence, 500 g ai/ha, 0 to 100 scale where 0 is no effect and 100 is complete control
[14] = 125 g ai/ha, 0 to 100 scale where 0 is no effect and 100 is complete control
[15] = 500 g ai/ha, visual rating after approx. 10 d, 0 to 100 scale (0 no effect, 100 complete control)

COc1nn(C)c(=O)c(-c2c(C)ccc3ccccc23)c1OC(C)=O [Compound 138]
100: Plant response rating, Barnyardgrass [1, 11] | Plant response rating, Barnyardgrass [1, 13] | Plant response rating, Foxtail, Giant [2, 11] | Plant response rating, Foxtail, Giant [2, 13] | Plant response rating, Kochia (kochia (Kochia scoparia); [10]) | Plant response rating, Kochia (kochia (Kochia scoparia); [11]) | Plant response rating, Kochia (kochia (Kochia scoparia); [13]) | Plant response rating, Pigweed [3, 11] | Pigweed plant response rating [3, 12] | Plant response rating, Pigweed [3, 13] | Plant response rating, Ragweed [4, 10] | Plant response rating, Ragweed [4, 11] | Plant response rating, Ragweed [4, 13] | Plant response rating, Ryegrass, Italian [5, 11] | Plant response rating, Ryegrass, Italian [5, 13] | Plant response rating, Galium [8, 14] | Plant response rating, Galium [8, 15]
40: Kochia plant response rating (kochia (Kochia scoparia); [12]) | Plant response rating, Barnyardgrass ([9]; Postemergence, 250 g ai/ha, scale 0 to 100, 0 no effect, 100 complete control, 13 to 15 d)
90: Plant response rating, Foxtail, Giant [2, 10] | Foxtail, Giant plant response rating [2, 12] | Plant response rating, Pigweed [3, 10] | Plant response rating, Ryegrass, Italian [5, 10] | Plant response rating, Blackgrass [7, 15] | Plant response rating, Barnyardgrass ([9]; Preemergence, 125 g ai/ha, scale 0 to 100, 0 is no effect, 100 is complete control)
20: Plant response rating, Barnyardgrass [1, 10] | Plant response rating, Corn (corn (Zea mays); [15]) | Plant response rating, Wheat [6, 15]
25: Plant response rating, Barnyardgrass ([9]; Postemergence, 31 g ai/ha, scale 0 to 100 (0 no effect, 100 complete control)) | Barnyardgrass plant response rating ([9]; Postemergence, 62 g ai/ha, 0 to 100 scale (0 no effect, 100 complete control))
10: Barnyardgrass plant response rating [1, 12]
30: Plant response rating, Barnyardgrass ([9]; Postemergence, 125 g ai/ha, scale 0 to 100, 0 is no effect, 100 is complete control) | Plant response rating, Barnyardgrass ([9]; Preemergence, 31 g ai/ha, scale 0 to 100, 0 is no effect, 100 is complete control)
98: Barnyardgrass plant response rating ([9]; Preemergence, 250 g ai/ha, scale 0 to 100 (0 no effect, 100 complete control))
80: Plant response rating, Blackgrass [7, 14]
0: Plant response rating, Corn (corn (Zea mays); [14]) | Plant response rating, Wheat [6, 14]
55: Plant response rating, Barnyardgrass ([9]; Preemergence, 62 g ai/ha, scale 0 to 100, 0 is no effect, 100 is complete control)
